Measured values published in patent US9687483B2, “Treatment of cerebral cavernous malformations and cerebral aneurysms with Rho kinase inhibitors” (priority 2015, dated 2017).
Values joined by “and” are separate entries in the source; they are usually repeats but may differ in a detail not shown here. Equal values may be shown once. Read-outs that look alike come from different tables or passages of the source. Each block holds one compound with its values, some of them ahead of it.

Experiments:
cadherin in HUVEC cells = experiment: Cadherin expression in HUVEC, Western blot; type: cell-based, human; settings: 50 μM, 24 hr, vs control; p<0.05
HUVEC cells [1] = experiment: Endothelial cell actin cytoskeleton, Rhodamine-phalloidin staining; type: cell-based, human; settings: 10 μM or 25 μM
[2] = system: induced intracranial saccular aneurysms in Sprague Dawley rats; experiment: Prophylactic reduction of intracranial aneurysm burden in vivo; set-up: species or system rat; settings: vs control rats
in vitro [3] = settings: human, Caco-2, pH 7.4
[4] = system: induced intracranial saccular aneurysms in Sprague Dawley rats; experiment: Reduction of prevalence/size of existing aneurysms in vivo; set-up: species or system rat
occludin in HUVEC cells = experiment: Occludin expression in HUVEC, Western blot; type: cell-based, human; settings: for Effect on junctional protein expression at lower dose: 25 μM
HUVEC cells [5] = experiment: In vitro endothelial tubulogenesis assay on ECMatrix; type: cell-based, human; settings: 10 or 50 μM (or μg/mL); 6 hr to 16 hr; vs untreated cells
Caco-2 cell monolayers [6] = settings: for Transport mechanism across Caco-2 monolayers: from B to A/A to B Papp ratios; for Caco-2 cell permeability (classification): from measured Papp values
[7] = known values for controls; cited from earlier work
[8] = target: ROCK I recombinantly-produced kinase domain (Homo sapiens (Human), UniProt Q13464); settings: read-out: ROCK I IC50; ATP 10 μM, substrate 200 nM; Fasudil mean ± SD of 3-4 experiments; BA-1049 two individual experiments
HUVEC cells [9] = system: HUVEC cells
[10] = target: ROCK II recombinantly-produced kinase domain (Homo sapiens (Human), UniProt O75116); settings: read-out: ROCK II IC50; ATP 10 μM, substrate 200 nM; Fasudil mean ± SD of 3-4 experiments; BA-1049 two individual experiments
[11] = system: ROCK II recombinantly-produced kinase domain; settings: ROCK II versus ROCK I
Caco-2 cell monolayers [12] = experiment: Caco-2 permeability assay
in vitro [13] = settings: human, plasma
[14] = both, human, 24 h, 35 µM, pH 7.4
[15] = both, human, plasma, 24 h, 35 µM, pH 7.4
[16] = human plasma, 24 hr dialysis, 37° C., mean of 2 replicates

Sequence of ROCK I recombinantly-produced kinase domain (Q13464 76-338): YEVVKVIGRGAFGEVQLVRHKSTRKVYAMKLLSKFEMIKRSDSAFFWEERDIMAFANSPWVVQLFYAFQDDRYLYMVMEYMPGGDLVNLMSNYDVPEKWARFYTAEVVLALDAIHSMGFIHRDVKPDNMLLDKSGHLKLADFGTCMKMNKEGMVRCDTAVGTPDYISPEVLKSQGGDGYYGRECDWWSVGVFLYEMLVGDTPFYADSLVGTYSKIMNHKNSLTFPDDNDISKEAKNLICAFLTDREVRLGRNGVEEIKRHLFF

Bound (human plasma proteins; [14]): 19.2% | Unbound (human plasma proteins; [15]): 81.8% | Papp A→B at 60 min, 35 µM (in vitro [3]): 18.9 ×10⁻⁶ cm/s | Papp B→A at 60 min, 35 µM (in vitro [3]): 18.5 ×10⁻⁶ cm/s | Transport mechanism across Caco-2 monolayers (Caco-2 cell monolayers [6]): passively transported | Caco-2 cell permeability (classification) (Caco-2 cell monolayers [6]): high
SMILES: O=S(=O)(c1cccc2cnccc12)N1CCCNCC1 [Fasudil]
Cadherin increase (cadherin in HUVEC cells): 1.2 fold | Effect on junctional (peripheral) actin distribution (HUVEC cells [1]): disrupted the peripheral actin to a greater extent than the stress fibers | Average aneurysm size and area [2]: reduces | Level of inflammatory invasion in a given aneurysm [2]: reduces | Number of iron deposits near a given aneurysm [2]: reduces | Rho kinase activity in the endothelial and smooth muscle cells of the aneurysm wall [2]: reduces | Total number of saccular aneurysms ([2]; daily or weekly dose for 2 mo): reduces | Total number of saccular aneurysms in 6 mo and 8 mo rats ([4]; vs baseline (4 mo) results): reduces | Average aneurysm size and area ([4]; vs control rats): reduces | Level of inflammatory invasion in a given aneurysm ([4]; vs control rats): reduces | Number of iron deposits near a given aneurysm ([4]; vs control rats): reduces | Rho kinase activity in the endothelial/smooth muscle cells of the aneurysm wall ([4]; vs control rats): reduces | Total number of saccular aneurysms ([4]; vs control rats): reduces | Effect on junctional protein expression at lower dose (occludin in HUVEC cells): no significant effect | Occludin decrease (occludin in HUVEC cells; 50 μM, 24 hr, vs control, p<0.001): 50% | Endothelial cell tube formation (HUVEC cells [5]): some tubes are visible but are not always closed and are thin

Papp A→B at 60 min (in vitro [3]): 2.62 ± 0.81 ×10⁻⁶ cm/s | Papp A→B at 60 min, 35 µM (in vitro [3]): 1.01 ± 0.146 ×10⁻⁶ cm/s | Papp B→A at 60 min (in vitro [3]): 1.36 ± 0.362 ×10⁻⁶ cm/s | Papp B→A at 60 min, 35 µM (in vitro [3]): 0.821 ± 0.362 ×10⁻⁶ cm/s | efflux ratio at 60 min, 35 µM (in vitro [3]): 0.81
SMILES: OC[C@@H](O)[C@@H](O)[C@H](O)[C@H](O)CO [[^3H]-Mannitol, D-[1-^3H(N)]Mannitol]
% absorption in humans [7]: 15%

SMILES: CC(N)C1CCN(S(=O)(=O)c2cccc3cnccc23)CC1.Cl.Cl (racemic) [BA-1049]
Bound (human plasma proteins; [16]): 7.26% | Unbound (human plasma proteins; [16]): 92.7% | Cadherin increase (cadherin in HUVEC cells): 1.2 fold | IC50 [8]: 21000 nM | Disruption of proliferation compared with Fasudil at a given concentration (HUVEC cells [9]; 72 hr): did not disrupt proliferation to the same extent as Fasudil | Proliferation of endothelial cells (HUVEC cells [9]; 72 hr incubation): reduced proliferation | Concentration at which decrease in cell proliferation appears (HUVEC cells [9]; 72 hr, p<0.05 or p<0.01): 1 µM | IC50 [10]: 1600 nM and 940 nM | Selectivity for Rock II [11]: 13.1 -fold | Effect on actin stress fibers (HUVEC cells [1]): disrupted stress fibers | Effect on junctional (peripheral) actin distribution (HUVEC cells [1]): little to no effect | B-A/A-B Papp Ratio (Caco-2 cell monolayers [12]): 1.31 | Effect on junctional protein expression at lower dose (occludin in HUVEC cells): no significant effect | Occludin increase (occludin in HUVEC cells; 50 μM, 24 hr, vs control, p<0.05): 1.3 fold | Endothelial cell tube formation (HUVEC cells [5]): some tubes are visible but are not always closed and are thin | Papp A to B (Caco-2 cell monolayers [6]; apical to basolateral, 60 min, pH 7.4): 10.7 ×10⁻⁶ cm/s | Papp B to A (Caco-2 cell monolayers [6]; basolateral to apical, 60 min, pH 7.4): 14.1 ×10⁻⁶ cm/s | Transport mechanism across Caco-2 monolayers (Caco-2 cell monolayers [6]): passively transported | Caco-2 cell permeability (classification) (Caco-2 cell monolayers [6]): intermediate to high

Bound (human plasma proteins; [14]): 91.3% | Unbound (human plasma proteins; [15]): 8.67% | Papp A→B at 60 min (in vitro [3]): 32.3 ± 5.4 ×10⁻⁶ cm/s | Papp A→B at 60 min, 35 µM (in vitro [3]): 36 ± 1.65 ×10⁻⁶ cm/s | Papp B→A at 60 min (in vitro [3]): 31 ± 5.27 ×10⁻⁶ cm/s | Papp B→A at 60 min, 35 µM (in vitro [3]): 27.8 ± 3.68 ×10⁻⁶ cm/s | fraction unbound (in vitro [13]): 0.121
SMILES: CC(C)NC[C@H](O)COc1cccc2ccccc12 [[^3H]-Propranolol, L-(−)-[4-^3H]propranolol]
